Legend:
PCP receptor = experiment: [3H]TCP radioreceptor assay (binding to PCP recognition sites); parameters: species or system rat (male Sprague-Dawley, whole brain); settings: for Ki: [3H]TCP approx. 1 nM, rat brain membranes, mean of at least two determinations
Outline: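 Rat whole-brain membranes (Tris-HCl, pH 7.7), 0.5 mg protein/tube, incubated with ~1 nM [3H]TCP for 25 min at room temperature; non-specific binding defined with 100 μM PCP. Bound ligand collected by filtration and counted by scintillation; Ki from at least two determinations, or % inhibition at 10 μM.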

[1] = test system: cultured cortical neurons; experiment: Antagonism of NMDA-induced neurotoxicity in cultured cortical neurons (LDH release); type: cell-based, mouse (Swiss-Webster); settings: 500 μM NMDA, 30 min exposure, LDH 24 h later
Description: Antagonism of NMDA-induced Neurotoxicity in Cultured Neurons
Preparation of Cultured Cortical Neurons
Pregnant, Swiss-Webster mice were obtained from Taconic Farms (Germantown, New York) and sacrificed 16 days post conception. Fetuses were removed and placed in a sterile dish containing Hank's balanced salt solution (HBSS), pH 7.4. Brain cortices were dissected, meninges were removed, the tissue was minced and placed into a solution of HBSS containing 0.25% (w/v) trypsin at 37° C. for 15 minutes. Tissue was then triturated with a sterile pasteur pipet, diluted with minimal essential media (Gibco 330-1430), pH 7.4, supplemented with 10% horse serum, 10% fetal calf serum, 2 mM 1-glutamine, 21 mM d-glucose, 2.2 g/L sodium bicarbonate, 1000 U/mL penicillin, and 1,000 μg/mL streptomycin. Cells were plated onto Falcon primaria 96 well plates at a final density of 50,000 cells/well and incubated at 37 °C in the presence of 5% (v/v) carbon dioxide. After 5 days, plating media was replaced with maintenance media containing minimal essential media (Gibco 330-1430), pH 7.4, supplemented with 10% horse serum, […], 21 mM d-glucose, 2.2 g/L sodium bicarbonate, 1,000 U/mL penicillin, 1,000 μg/mL streptomycin, and 10 μM cytosine arabinoside. On days 7 and 10, media was replaced with maintenance media as above lacking the cytosine arabinoside. Experiments were conducted on day 13.
Neuroprotection Assessment
Day 13 cultured cortical neurons were washed twice with minimal essential media, pH 7.4 and then exposed for 30 minutes to 500 μM N-methyl-D-aspartic acid (NMDA) with or without varying concentrations of test agents. […] MK-801 and test agents were prepared in minimal essential media supplemented with 21 mM d-glucose and 2.2 g/L sodium bicarbonate (MEM). After 30 minutes, media was replaced with MEM alone. Exposure of neurons to test agents was limited to the NMDA treatment period. Twenty-four hours after removal of NMDA, an aliquot of media from each well was removed for assessment of cell injury by determining lactate dehydrogenase (LDH) activity by the method of Wroblewski and LaDue Proc. Soc. Exp. Biol. Med. 1955, 90, 210-213. The results are expressed as an IC50 (in nM) value (concentration causing 50% inhibition) for the antagonism of NMDA--inducedneurotoxicity. Table 3 summarizes the results obtained from the testing of representative compounds of the invention in the [^3 H]TCP radioreceptor assay as well as in the antagonism of NMDA-induced neurotoxicity in cultured neurons.

| Compound | Ki (PCP receptor) [nM] | IC50 [1] [nM] | IC50 ([1]; Mus musculus, Cortical neurone) [nM] | [3H]TCP percent inhibition @ 10 μm (PCP receptor; inhibition of [3H]TCP binding at 10 μM) [%] |
| --- | --- | --- | --- | --- |
| [O-][Cl+3]([O-])([O-])[O-].c1ccc2c(c1)C1CC(c3ccoc3)(c3ccn[nH]3)C2c2cccc[n+]21 (single isomer, unassigned) [185(b), 6,11-ethano-12-(3-furyl)-12-(5-pyrazolyl]-6,11-dihydrobenzo[b]quinolizinium perchlorate] | 6.29 | 53 | – | – |
| c1csc(C2(c3cccs3)CC3c4ccccc4C2c2cccc[n+]23)c1 (stereo not shown) [48(b), 6,11-ethano-12,12-di(2-thienyl)-6,11-dihydrobenzo[b]quinolizinium chloride] | 2.08 | 23 | – | – |
| CC12CC(c3ccoc3)(c3ccoc3)C(c3ccccc31)c1cccc[n+]12 (stereo not shown) [50(b), 6,11ethano-12,12-di(3-furanyl)-6-methyl-6,11-dihydrobenzo[b]quinolizinilium chloride] | 1.24 | – | 22 | – |
| c1ccc2c(c1)C1CC(c3ccsc3)(c3ccsc3)C2c2cccc[n+]21 (stereo not shown) [52(F), 6,11-ethanol 12,12-di(3-thienyl)-6,11-dihydrobenzo[b]quinolizinium chloride] | 1.82 | – | 39 | – |
| c1ccc2c(c1)C1C3CCc4occc4C3(c3ccoc3)C2c2cccc[n+]21 (stereo not shown) [7(b), 6,11[[5',4']-4'-(3-furyl)-4',5',6',7'-tetrahydrobenzofuryl]6,11-dihydrobenzo[b]quinolizinium hexafluorophosphate] | 1.38 | – | 7.6 | – |
| c1ccc2c(c1)C1CC(c3ccn[nH]3)(c3ccn[nH]3)C2c2cccc[n+]21 (stereo not shown) [63(d), 6,11-ethano-12,12-di(5-pyrazolyl)-6,11-dihydrobenzo[b]quinoliziniumperchlorate] | 10 | 1630 | – | – |
| CC1C2c3ccccc3C(c3cccc[n+]32)C1(c1ccoc1)c1ccoc1 (single isomer, unassigned) [181(d), 6,11-ethano-12,12-di(3-furyl)-13-methyl-6,11-dihydrobenzo[b]quinolizinium hexafluorophosphate] | 6.15 | 55 | – | – |
| Fc1ccc2c(c1)C1c3cccc[n+]3C2CC1(c1ccoc1)c1ccoc1.[O-][Cl+3]([O-])([O-])[O-] (stereo not shown) [196(c), 12,12-di(3-furyl)-9-fluoro-6,11-ethano-6,11-dihydrobenzo[b]quinolizinium perchlorate] | 4.11 | – | 80 | – |
| CCOC1(c2ccoc2)CC2c3ccccc3C1c1cccc[n+]12 (stereo not shown) [11(F), 6,11-ethano-12-(3-furyl)-12-ethoxy-6,11-dihydrobenzo[b]quinolizinium chloride] | 73 | – | 2550 | – |
| c1ccc2c(c1)CC1C3c4ccccc4C(c4cccc[n+]43)C21c1ccoc1 (stereo not shown) [6(d), 6.11[[2',3']-3'-(3-furyl)indanyl]6,11-dihydrobenzo[b]quinolizinium chloride] | 1.2 | – | 244 | – |
| c1ccc2c(c1)C1CC(c3ccn[nH]3)(c3ccn[nH]3)C2c2cccc[n+]21 (stereo not shown) [64(f), 11-ethano-12,12-di-[(pyrazol-5-yl)-6,11-dihydrobenzo[b]quinolizinium chloride] | 13 | 360 | – | – |
| CC12CC(c3ccccc3)(c3ccccc3)C(c3ccccc31)c1cccc[n+]12 (stereo not shown) [19(b), 6,11-ethano-12,12-diphenyl-6-methyl-6,11-dihydro-benzo[b]quinolizinium. Chloride] | 6.8 | – | 102 | – |
| Oc1ccc2c(c1)C1c3cccc[n+]3C2CC1(c1ccoc1)c1ccoc1 (stereo not shown) [Example 193, 12,12-di(3-furyl)-9-hydroxy-6,11-ethano-6,11-dihydrobenzo[b]quinolizinium chloride] | 2.13 | – | 11.8 | – |
| CC1C2c3ccccc3C(c3cccc[n+]32)C1(c1ccoc1)c1ccoc1 (single isomer, unassigned) [181(c), 6,11-ethano-12,12-di(3-furyl)-13-methyl-6,11-dihydrobenzo[b]quinolizinium hexafluorophosphate] | 6.36 | 11.4 | – | – |
| c1ccc2c(c1)-c1ccccc1C21CC2c3ccccc3C1c1cccc[n+]12 (stereo not shown) [58(c), 6,11-ethano-12,12-spiro-9H-fluorenyl-6,11-dihydrobenzo[b]quinolizinium chloride] | – | – | > 1000 | 32 |
| c1coc(C2(c3ccco3)CC3c4ccccc4C2c2cccc[n+]23)c1 (stereo not shown) [57(d), 6,11-ethano-12,12-di(2-furanyl)-6,11-dihydrobenzo[b]quinolizinium chloride] | 1.9 | 36 | – | – |
| [O-][Cl+3]([O-])([O-])[O-].c1ccc2c(c1)C1CC(c3ccoc3)(c3ccn[nH]3)C2c2cccc[n+]21 (single isomer, unassigned) [185(a), 6,11-ethano-12-(3-furyl)-12-(5-pyrazolyl]-6,11-dihydrobenzo[b]quinolizinium perchlorate] | 4.55 | – | 32.6 | – |
| N#CC12CC(c3ccoc3)(c3ccoc3)C(c3ccccc31)c1cccc[n+]12 (stereo not shown) [171(b), 6,11-ethano-12,12-di(3-furyl)-6-cyano-6,11-dihydrobenzo[b]quinolizinium chloride] | 10.2 | – | 26.5 | – |
| CC12CC(c3cccs3)(c3cccs3)C(c3ccccc31)c1cccc[n+]12 (stereo not shown) [47(d), 6,11-ethano-12,12-di(2-thienyl)-6-methyl-6,11-dihydrobenzo[b]quinoliziniumchloride] | 2.11 | – | 40 | – |
| CC12c3ccccc3C(c3cccc[n+]31)C(c1ccccc1)(c1ccccc1)C21CC1 (stereo not shown) [51(c), 6,11-ethano-12,12-diphenyl-6-methyl-13,13-(spirocyclopropane)-6,11-dihydrobenzo[b]quinolizinium chloride] | 22.3 | – | 83 | – |
| CCOC1(c2ccoc2)CC2c3ccccc3C1c1cccc[n+]12 (stereo not shown) [11(g), 6,11-ethano-12-(3-furyl)-12-ethoxy-6,11-dihydrobenzo[b]quinolizinium chloride] | 18 | 2000 | – | – |
| c1ccc(C2(c3ccccc3)CC3c4ccccc4C2c2cccc[n+]23)cc1 (stereo not shown) [17(b), 6,11-ethano-12,12-diphenyl-6,11-dihydrobenzo[b]quinolizinium chloride] | 8.18 | 197 | – | – |
| COc1cccc2c1CC1C3c4ccccc4C(c4cccc[n+]43)C21c1ccccc1 (stereo not shown) [4(E), 6,11[[2',3']-3'-phenyl-7'-methoxy-indanyl]16,11-dihydrobenzo[b]quinolizinium hexafluoro-phosphate] | 5870 | – | – | – |
| Fc1ccc[n+]2c1C1c3ccccc3C2CC1(c1ccoc1)c1ccoc1.[O-][Cl+3]([O-])([O-])[O-] (stereo not shown) [197(d), 6,11-ethano-12,12-di(3-furyl)-1-fluoro-6,11-dihydrobenzo[b]quinolizinium perchlorate] | 13.8 | – | – | – |
| CC(C)Oc1cccc2c1C1c3cccc[n+]3C2CC1(c1ccccc1)c1ccccc1 (stereo not shown) [32(F), 6,11-ethano-12.12-diphenyl-10-isopropoxy-6,11-dihydrobenzo[b]quinoliziniumchloride] | 468 | – | – | – |
| Oc1ccc2[n+](c1)C1CC(c3ccoc3)(c3ccoc3)C2c2ccccc21 (stereo not shown) [Example 191(f), 12,12-di(3-furyl)-3-hydroxy-6,11-ethano-6,11-dihydrobenzo[b]quinolizinium chloride] | 1530 | – | – | – |
| c1ccc2c(c1)CC1C2C2c3ccccc3C1[n+]1ccccc12 (single isomer, unassigned) [Example 2(b), 6,11[[2',3']indanyl]6,11-dihydrobenzo[b]quinolizinium chloride] | 262 | – | – | – |

From patent US5554620A, “Substituted 6,11-ethano-6,11-dihydrobenzo[b] quinolizinium salts and compositions and methods of use thereof” (Sterling Winthrop Inc., priority 1994, dated 1996)
